Assays:
chick embryo heart cells [1] = assay: Effect on proliferation of chick embryo heart cells in the presence of 6-mercaptopurine (Experiment 5); assay type: cell-based; details: Experiment 5, 20 μg/ml, 6-mercaptopurine 5 μg per ml; for activity at 20 µg/mL: Gallus gallus, 24 h
Protocol: (§1) Method: The hearts excised from 13-day-old chick embryos were cut into pieces 1 to 2 mm in diameter under sterile conditions. After washing with calcium and magnesium-free phosphate buffered saline (PBS), the pieces of hearts were treated with a solution of 0.1% trypsin in PBS freed from calcium and magnesium ions, and the supernatant fraction was discarded. The residue was treated with a solution of 0.1% trypsin in PBS freed from calcium and magnesium ions, and the supernatant fractions containing isolated cells were collected. The procedure was repeated 3 times. The supernatant fractions were combined and diluted with cold culture medium containing 10% fetal calf serum, sodium penicillin G (100 units per ml) and sulfate streptomycin (1 μg per ml), and centrifuged at 150 xG. The resulting pellet was washed twice with the culture medium and diluted cautiously with the same culture medium to give a suspension which contains 200,000 cells per ml. One ml of the suspension was poured into each of 28 culture tubes which were equally divided into 7 groups. The cells were cultured at 37° C in an incubator. After 1 day of incubation the culture medium of the tubes was removed and 1 ml of each culture medium containing compound shown in Table I was added thereto. After additional 3 days of incubation the culture medium was removed and the cells were then treated with 1 ml of 0.1 M citric acid containing 0.1% crystal violet. The number of cells was counted with a hemocytometer in quadruplicate after vigorous shaking.
(§2) Method: The culture procedure for chick embryo heart cells was employed as described in Experiment 1. After 3 days of incubation, the culture medium was removed and 1 ml of each culture medium containing compounds shown in Table II was added thereto. After an additional 1 day of incubation the number of cells was counted.
Method: Same as in Experiment 2 except that 6-mercaptopurine (5 μg per
ml) was added to each culture

pylorus ligation ulcer = assay: Effect on pylorus ligation ulcer in rats (Experiments 6 and 7); assay type: in vivo, Male Wister rats; details: for anti-ulcer activity (in words): summary statement, Tables VI to VIII
Protocol: a. Effect of S-inosylcysteine on pylorus ligation ulcer.
(§3) Method: Male Wister rats (Keari Gifu-Lab.), aged 7 weeks were used. After fasting for 48 hours, rats weighing 210 to 230 g were divided into 6 groups of 10 rats. The pylorus of stomach was ligated under light anesthesia with pentobarbital sodium (25 mg per kg, i.p.). Immediately after the ligation, a psysiological saline was orally administered to one group and a solution of each tested compound (50 mg per kg) was orally administered to the remaining 5 groups. After these rats were kept without food and water for 10 hours from the ligation, the stomach was removed under anesthesia with pentobarbital sodium (30 mg per kg, i.p.). The gastric contents were aspirated and the stomach was fixed by means of the injection of 10 ml of a 2% formalin solution into the lumen. The stomach was opened along its greater curvature. The severity of the lesion of the rumen, that is, the degree of ulcer was expressed as ulcer index according to the method of Yokotani (Folia pharmacol. Japon. 56, 1373, (1960). The results are shown in Table VI.
*Inhibition rate was calculated as follows: […]
Method: The same method as described in Experiment 6 was employed. The
effect of S-inosyl-L-cysteine
on pylorus ligation ulcer was examined with intramuscular administration.

chick embryo heart cells [2] = assay: Effect on proliferation of chick embryo heart cells (Experiments 1 and 2); assay type: cell-based; details: for cell-proliferating activity (in words): summary statement, Tables I to V
Protocol: A. Effect of S-inosylcysteine on proliferation of chick embryo heart cells.
as §1, §2

gastric secretion = assay: Effect on gastric secretion in pylorus-ligated rats; assay type: in vivo, Male Wister rats; details: 50 mg/kg, p.o., 5 hours from ligation
Protocol: as §3
b. Effect of S-inosylcysteine on gastric secretion. Method: The rats were ligated in the same manner as in Experiment 6, and divided into 2 groups of 10 rats. Immediately after the ligation, a physiological saline or a solution of S-inosyl-L-cysteine was orally administered. After the rats were kept without food and water for 5 hours from the ligation, the esophagus was ligated and the stomach was removed under anesthesia with pentobarbital sodium (30 mg per kg. i.p.). The gastric contents were collected and centrifuged at 2,000 rpm for 10 minutes. The volume of supernatant was measured and its pH was determined with a pH meter (Hitach-Horiba Type M-5). Free-HCl, total-HCl and total-acidity in the supernatant were determined by the titration with 1/50 N NaOH using Topfer's solution and phenolphtalein solution as an indicator.

chick embryo heart cells [3] = assay: Effect on proliferation of chick embryo heart cells in the presence of a growth inhibitor, KCN (Experiments 3 and 4); assay type: cell-based; details: KCN 1.7 μg per ml; for activity at 20 µg/mL / activity at 50 µg/mL: Gallus gallus; for activity at 20 µg/mL: 24 h
Protocol: as §1, with “After” for “Method: The hearts excised from 13-day-old chick embryos were cut into pieces 1 to 2 mm in diameter under sterile conditions. After”, “The resulting pellet was washed twice with the culture medium and diluted cautiously with the same culture medium to give a suspension which contains 200,000 cells per ml.” left out, “shaking. […] After 3 days of incubation, the culture medium was removed and 1 ml of each culture medium containing compounds shown in Table II was added thereto. After an additional 1 day of incubation the number of cells was counted. […] Method: The culture procedure for chick embryo heart cells was employed as described in Experiment 1. After one day of incubation, the culture medium was removed and 1 ml of each culture medium containing KCN (1.7 μg per ml) and compounds shown in Table III were added thereto.” for “shaking.”

## N[C@@H](CSC[C@H]1O[C@@H](n2cnc3c(=O)[nH]cnc32)[C@H](O)[C@@H]1O)C(=O)O [S-inosyl-L-cysteine, 5'-S-(2-amino-2-carboxyethyl)-5'-thioinosine]
Chick embryo heart cells [1]
  Cell number ± S.E.: 85.8 ± 2.9 ×10^4 cells
Chick embryo heart cells [1]; its control = 100.0, read-out: Growth Rate (%)
  activity at 20 µg/mL: 126%
Chick embryo heart cells [1]; simultaneous with Experiment 2, read-out: Growth rate (%) with respect to control of Table II
  activity at 20 µg/mL: 105%
Pylorus ligation ulcer; Experiment 6, 50 mg/kg, p.o.
  Inhibition rate (%) of ulcer: 42%
Pylorus ligation ulcer; Experiment 6, 50 mg/kg, p.o., 10 hours from ligation
  Mean ulcer index ± S.E.: 8.1 ± 1.1
Pylorus ligation ulcer; Experiment 7, 50 mg/kg, i.m.
  Inhibition rate (%) of ulcer: 59%
  Mean ulcer index ± S.E.: 5.1 ± 1.6
Pylorus ligation ulcer; listed as S-inosyl cysteine
  anti-ulcer activity (in words): superior to those of known related compounds (7) to (10)
Pylorus ligation ulcer; listed as S-inosylsteine
  anti-ulcer activity (in words): excellent
Chick embryo heart cells [2]; Experiment 1, 50 μg/ml, 3 days incubation
  Cell number + S.E.: 65.4 ± 1.6 ×10^4 cells
Chick embryo heart cells [2]; Experiment 2, 20 μg/ml, 1 day with compound after 3 days of incubation
  Cell number ± S.E.: 97.8 ± 3.8 ×10^4 cells
Chick embryo heart cells [2]; Gallus gallus, 24 h, Experiment 2, 20 μg/ml, control = 100.0, read-out: Growth rate (%)
  activity at 20 µg/mL: 120%
Chick embryo heart cells [2]; Gallus gallus, 72 h, Experiment 1, 50 μg/ml, control = 100.0, read-out: Growth rate %
  activity at 50 µg/mL: 128%
Chick embryo heart cells [2]; listed as S-inosycysteine
  cell-proliferating activity (in words): superior to those of known related compounds (2) to (10)
Chick embryo heart cells [2]; listed as S-inosylcysteine
  cell-proliferating activity (in words): remarkable
Chick embryo heart cells [2]; listed as S-inosylsteine
  cell-proliferating activity (in words): excellent
Gastric secretion
  Free-HCl, inhibition rate %: 36%
  Total-HCl, inhibition rate (%): 23%
  Total-acidity: 83.2 mEq/l
  Total-acidity, inhibition rate (%): 22%
  Volume, inhibition rate (%): 38%
  pH (gastric contents supernatant): 1.50 ± 0.06
Gastric secretion; ± S.E.
  Free-HCl: 42.8 ± 6.0 mEq/l
  Total-HCl: 73.8 ± 6.4 mEq/l
  Volume (gastric contents supernatant): 5.3 ± 0.5 mL
Chick embryo heart cells [3]; Experiment 3, 50 μg/ml
  Cell number ± S.E.: 50.9 ± 1.5 ×10^4 cells
Chick embryo heart cells [3]; Experiment 4, 20 μg/ml
  Cell number ± S.E.: 85.6 ± 0.4 ×10^4 cells
Chick embryo heart cells [3]; Experiment 4, 20 μg/ml, KCN control = 100.0, read-out: Growth rate (%)
  activity at 20 µg/mL: 130%
Chick embryo heart cells [3]; Experiment 4, 20 μg/ml, simultaneous with Experiment 2, read-out: Growth rate (%) with respect to control of Table II
  activity at 20 µg/mL: 105%
Chick embryo heart cells [3]; Experiment 3, 50 μg/ml, KCN control = 100.0, read-out: Growth Rate %
  activity at 50 µg/mL: 159%
Chick embryo heart cells [3]; Experiment 3, 50 μg/ml, simultaneous with Experiment 1, read-out: Growth rate (%) with respect to control of Table I
  activity at 50 µg/mL: 100%
